Measured values published in publication PMC11091976, “Shorter Peptide Nucleic Acid Probes Improve Affibody-Mediated Peptide Nucleic Acid-Based Pretargeting” (ACS Pharmacology & Translational Science, 2024).

Columns and labels:
Z-HP15 = assay: Multicycle kinetic SPR, immobilized Z-HP15; assay type: binding; conditions: MCK SPR
Protocol: M^–1 s^–1, as well as the slowest dissociation rate constant (kd) at 3.4 × 10^–5 s^–1.
We utilized SPR on a Biacore T200 instrument (Cytiva) to examine how secondary PNA probes (6-mer HP19, 7-mer HP21, 8-mer HP20, and 9-mer HP16) bind to primary agents. These experiments were conducted using dextran-coated CM5 sensor chips and PBS-T buffer at pH 7.4. The ligands were immobilized through a standard EDC/NHS coupling method, and the chip surface was sealed with ethanolamine. A reference surface with no primary agent was also included.
Association and dissociation times were set at 700 and 1800 s, respectively, with regeneration accomplished through a 30 s injection of 10 mM glycine-HCl, pH 1.5.
All SPR experiments were performed in duplicate, and data analysis was conducted using the Biacore T200 Evaluation software version 2.0 with a 1:1 binding model.

[1] = test system: HER2 xenograft mouse model; conditions: in vivo; cited from earlier work
Protocol: In our recent study,[29] we introduced a second-generation of pretargeting probes featuring a common 15-mer affibody-PNA conjugate, ZHER2:343-HP15, and three complementary secondary probes of varying lengths: a 9-mer (HP16), a 12-mer (HP17), and a 15-mer (HP18). […] At 4 h postinjection, there were no significant differences in the tumor-to-kidney ratios among the three different pretargeting groups.

Molecule: DOTA-AEEA-SS-aacaccagg-EEY-NH2 [HP16, 9-mer secondary PNA probe with DOTA]
- ka (Z-HP15; primary probe HP15 (Z-HP15 immobilized), 25 °C, 1.4-70 nM, 1:1 model, duplicates): 1.0 × 10^5 M^–1 s^–1
- Kd (Z-HP15; primary probe HP15, 25 °C): 320 pM
- kd (Z-HP15; primary probe HP15, 25 °C): 3.4 × 10^–5 s^–1
- Kd (Z-HP15; primary probe HP15, 37 °C): 440 pM
- ka (Z-HP15; primary probe HP15, 37 °C): 1.8 × 10^5 M^–1 s^–1
- kd (Z-HP15; primary probe HP15, 37 °C): 8.1 × 10^–5 s^–1

Molecule: NC(=O)[C@H](Cc1ccc(O)cc1)NC(=O)[C@H](CCC(=O)O)NC(=O)[C@H](CCC(=O)O)NC(=O)CN(CCNC(=O)CN(CCNC(=O)CN(CCNC(=O)CN(CCNC(=O)CN(CCNC(=O)CN(CCNC(=O)CN(CCNC(=O)CN(CCNC(=O)CN(CCNC(=O)[C@H](CO)NC(=O)[C@H](CO)NC(=O)COCCOCCNC(=O)CN1CCN(CC(=O)O)CCN(CC(=O)O)CCN(CC(=O)O)CC1)C(=O)Cn1cnc2c(N)ncnc21)C(=O)Cn1cnc2c(N)ncnc21)C(=O)Cn1ccc(N)nc1=O)C(=O)Cn1cnc2c(N)ncnc21)C(=O)Cn1ccc(N)nc1=O)C(=O)Cn1ccc(N)nc1=O)C(=O)Cn1cnc2c(N)ncnc21)C(=O)Cn1cnc2c(=O)[nH]c(N)nc21)C(=O)Cn1cnc2c(=O)[nH]c(N)nc21 [[^177Lu]Lu-HP16, metal not drawn]
- kidney uptake [1]: 6 ± 1 % ID/g
